This note sets out measurements from patent US6355632B1, “Naphthyl compounds, intermediates, compositions, and methods” (Eli Lilly and Company, priority 1995, dated 2002).

Counter-ions that a name gives are not always drawn.

The melting point is the temperature of the solid-liquid transition. The compound `COc1ccc(-c2ccc3cc(OC)ccc3c2Oc2ccc(OCCN3CCCCC3)cc2)cc1` (as salt: hydrochloride) [Example 4, 1-[4-[2-(1-piperdinyl)ethoxy]phenoxy]-2-(4-methoxyphenyl)-6-methoxynaphthalene hydrochloride] returned a melting point of 184 to 188 °C.
